Experimental data taken from PubChem BioAssay (NCI).
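Exposure lasted 48 hours, with cells grown in 96-well plates and compounds tested at five concentrations. GI50 = concentration required for 50% inhibition of growth. At the TGI there is no net growth.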

How the values were obtained:
Experiment in all cases: NCI tumour cell line growth inhibition, 48 h
[1] = test system: HCT-116 colon
[2] = test system: MALME-3M melanoma
[3] = test system: SNB-75 CNS
[4] = test system: UACC-62 melanoma
[5] = test system: SK-OV-3 ovarian
[6] = test system: CAKI-1 renal
[7] = test system: HS 578T breast
[8] = test system: DU-145 prostate
[9] = test system: COLO 205 colon
[10] = test system: K-562 leukemia

Work on CCC[CH2][Sn]1([CH2]CCC)[O]C(=O)c2cccc([N+](=O)[O-])c2C(=O)[O]1 yielded a GI50 [1] of 0.435 µM, a TGI [1] of 1.62 µM and a GI50 [2] of 0.189 µM. It also gave a TGI [2] of 0.623 µM, a GI50 [3] of 0.324 µM and a TGI [3] of 1.64 µM. The GI50 [4] was 0.381 µM, the TGI [4] was 1.5 µM and the GI50 [5] was 1.69 µM. The TGI [5] was 3.07 µM, the GI50 [6] was 0.332 µM and the TGI [6] was 1.39 µM. For the same molecule, the GI50 [7] was 0.907 µM, the TGI [7] was 3.73 µM and the GI50 [8] was 0.795 µM. For the same molecule, the TGI [8] was 2.05 µM, the GI50 [9] was 0.617 µM and the TGI [9] was 1.93 µM.
Work on C=CCC1(CN(C)C)CC/C(=C\c2ccc3c(c2)OCO3)C1=O (stereo not given) yielded a TGI [1] greater than 100 µM, a TGI [2] greater than 100 µM and a TGI [3] greater than 100 µM. It also gave a TGI [4] greater than 100 µM, a TGI [10] greater than 100 µM and a TGI [6] greater than 100 µM. For the same molecule, the TGI [9] was 54.1 µM.
C[C@]12CC[C@H]3[C@@H](CC[C@]4(O)C[C@@H](O)CC[C@]34C=O)[C@@]1(O)CC[C@@H]2C1=CC(=O)OC1 was tested, and the TGI [1] was 0.595 µM, the TGI [2] was 2.03 µM and the TGI [4] was 3.38 µM. The TGI [10] was greater than 100 µM, the TGI [5] was 2.79 µM and the TGI [6] was 0.61 µM. The TGI [7] was greater than 100 µM, the TGI [8] was 0.863 µM and the TGI [9] was 6.7 µM.
Molecule CCC(O)CCCCCCCCCCCCCCC(=O)O (stereo not given) has a TGI [1] greater than 100 µM, a TGI [2] greater than 100 µM and a TGI [3] greater than 100 µM. It also gave a TGI [4] greater than 100 µM, a TGI [10] greater than 100 µM and a TGI [5] greater than 100 µM. For the same molecule, the TGI [6] was greater than 100 µM and the TGI [9] was greater than 100 µM.
CCO/C=C\C12CCCC1NC(c1ccccc1)(c1ccccc1)O2 (stereo not given) gave a TGI [1] greater than 100 µM, a TGI [2] of 54.3 µM and a TGI [3] of 78.5 µM. It also gave a TGI [4] of 53.4 µM, a TGI [10] of 56.7 µM and a TGI [5] greater than 100 µM. It also gave a TGI [6] of 65.6 µM.
With CN(C(=O)C(C)(C)C)c1ccccc1I(=O)=O the GI50 [2] was 27.4 µM, the TGI [2] was greater than 100 µM and the GI50 [3] was greater than 100 µM. It also gave a TGI [3] greater than 100 µM, a GI50 [4] greater than 100 µM and a TGI [4] greater than 100 µM. The GI50 [10] was 14.1 µM, the TGI [10] was 35.5 µM and the GI50 [5] was greater than 100 µM. For the same molecule, the TGI [5] was greater than 100 µM, the GI50 [6] was greater than 100 µM and the TGI [6] was greater than 100 µM. The GI50 [7] was greater than 100 µM, the TGI [7] was greater than 100 µM and the GI50 [8] was greater than 100 µM. The TGI [8] was greater than 100 µM, the GI50 [9] was 60.7 µM and the TGI [9] was greater than 100 µM.
Work on C/C(=N\N=C(N)N)C(CN1CCOCC1)C(c1ccccc1)c1c(O)c2ccccc2oc1=O (stereo not given) yielded a TGI [1] greater than 100 µM, a TGI [2] greater than 100 µM and a TGI [3] of 99.4 µM. For the same molecule, the TGI [4] was greater than 100 µM, the TGI [10] was greater than 100 µM and the TGI [5] was greater than 100 µM. For the same molecule, the TGI [6] was greater than 100 µM and the TGI [9] was greater than 100 µM.
For COc1ccc(C(C2=C(O)CC(C)OC2=O)C2=C(O)CC(C)OC2=O)cc1 (stereo not given), the TGI [1] was greater than 100 µM, the TGI [2] was greater than 100 µM and the TGI [3] was greater than 100 µM. The TGI [4] was greater than 100 µM, the TGI [10] was greater than 100 µM and the TGI [6] was greater than 100 µM. For the same molecule, the TGI [9] was greater than 100 µM.
CC1C(c2ccccc2)N(C)C(c2ccccc2)C(C)C1(O)c1ccccc1 (stereo not given) showed a TGI [1] greater than 100 µM, a TGI [2] greater than 100 µM and a TGI [3] greater than 100 µM. It also gave a TGI [4] greater than 100 µM, a TGI [10] greater than 100 µM and a TGI [5] greater than 100 µM. The TGI [6] was greater than 100 µM and the TGI [9] was 58.7 µM.
Molecule Cc1ccc(/C=C2\CCCCC2=O)cc1 has a TGI [1] greater than 100 µM, a TGI [3] greater than 100 µM and a TGI [4] greater than 100 µM. It also gave a TGI [10] of 77.4 µM, a TGI [5] greater than 100 µM and a TGI [6] greater than 100 µM. For the same molecule, the TGI [9] was greater than 100 µM.
For COc1cc(/C=C2\[C@@H]3NC(Cc4c(OC)c(C)c(OC)c(OC)c43)C(=O)N2Cc2ccccc2)c(OC)c(C)c1OC, the TGI [1] was greater than 100 µM, the TGI [2] was 91.4 µM and the TGI [3] was greater than 100 µM. For the same molecule, the TGI [4] was greater than 100 µM, the TGI [10] was greater than 100 µM and the TGI [5] was greater than 100 µM. The TGI [6] was 89 µM and the TGI [9] was 28.3 µM.
With CCCCCCCCCC1CC(=O)OC2=C1C(=O)CCC2 (stereo not given) the TGI [1] was greater than 100 µM, the TGI [2] was greater than 100 µM and the TGI [3] was greater than 100 µM. The TGI [4] was greater than 100 µM, the TGI [10] was greater than 100 µM and the TGI [5] was greater than 100 µM. The TGI [6] was greater than 100 µM and the TGI [9] was greater than 100 µM.
Molecule COc1ccc(C(=O)/C=C/c2ccc(OCc3cccc(C(F)(F)F)c3)c(OC)c2)cc1OC has a GI50 [1] of 34.9 µM, a TGI [1] greater than 1000 µM and a GI50 [2] of 271 µM. It also gave a TGI [2] greater than 1000 µM, a GI50 [3] of 31.6 µM and a TGI [3] greater than 1000 µM. It also gave a GI50 [4] of 52.2 µM, a TGI [4] greater than 1000 µM and a GI50 [5] of 221 µM. For the same molecule, the TGI [5] was greater than 1000 µM, the GI50 [7] was 92.4 µM and the TGI [7] was greater than 1000 µM. The GI50 [8] was 72.6 µM, the TGI [8] was greater than 1000 µM and the GI50 [9] was 61.6 µM. For the same molecule, the TGI [9] was greater than 1000 µM.
O=C(Nc1nc2c(C(F)(F)F)cccc2s1)c1cc(Cl)ccc1O showed a GI50 [1] of 0.352 µM, a TGI [1] of 11.2 µM and a GI50 [2] of 0.231 µM. For the same molecule, the TGI [2] was 0.641 µM, the GI50 [3] was 0.262 µM and the TGI [3] was 41.6 µM. The GI50 [4] was 0.252 µM, the TGI [4] was 0.957 µM and the GI50 [10] was 0.327 µM. It also gave a TGI [10] greater than 100 µM, a GI50 [5] of 0.236 µM and a TGI [5] of 0.797 µM. It also gave a GI50 [7] of 0.268 µM, a TGI [7] of 26.3 µM and a GI50 [8] of 0.466 µM. It also gave a TGI [8] greater than 100 µM, a GI50 [9] of 0.52 µM and a TGI [9] of 2.42 µM.
NS(=O)(=O)c1ccc(-n2nc3c(c2-c2cccs2)Cc2ccccc2-3)cc1 gave a GI50 [1] of 7.67 µM, a TGI [1] of 22.7 µM and a GI50 [3] of 25.5 µM. For the same molecule, the TGI [3] was 83.1 µM, the GI50 [4] was 11.5 µM and the TGI [4] was 23.7 µM. For the same molecule, the GI50 [10] was 0.858 µM, the TGI [10] was 3.55 µM and the GI50 [5] was 37.7 µM. It also gave a TGI [5] greater than 100 µM, a GI50 [6] of 10.1 µM and a TGI [6] of 22.7 µM. For the same molecule, the GI50 [7] was 16.1 µM, the TGI [7] was 51 µM and the GI50 [8] was 10.6 µM. It also gave a TGI [8] of 24 µM, a GI50 [9] of 25.3 µM and a TGI [9] of 69.3 µM.
Molecule CCCCCCCCN(CCCCCCCC)CC(O)c1cc(-c2ccccc2)nc2ccc(OC)cc12 (stereo not given) has a GI50 [1] of 15.7 µM, a TGI [1] of 68.4 µM and a GI50 [2] greater than 100 µM. The TGI [2] was greater than 100 µM, the GI50 [3] was greater than 100 µM and the TGI [3] was greater than 100 µM. The GI50 [4] was 21.5 µM, the TGI [4] was greater than 100 µM and the GI50 [5] was greater than 100 µM. For the same molecule, the TGI [5] was greater than 100 µM, the GI50 [7] was greater than 100 µM and the TGI [7] was greater than 100 µM. For the same molecule, the GI50 [8] was 37 µM, the TGI [8] was greater than 100 µM and the GI50 [9] was 22.1 µM. The TGI [9] was greater than 100 µM.
O=[N+]([O-])c1ccc2c(c1)C(N1CCN(CCO)CC1)Cc1ccc(F)cc1S2 (stereo not given) gave a TGI [1] of 19.7 µM, a TGI [3] of 12.4 µM and a TGI [4] of 12.3 µM. The TGI [10] was 12.6 µM, the TGI [5] was 31 µM and the TGI [6] was 26.3 µM. It also gave a TGI [7] of 26.1 µM, a TGI [8] of 29 µM and a TGI [9] of 28.7 µM.
In the case of COc1nn(C)cc1Nc1nccc(-c2c[nH]c3c(NC(=O)[C@@H](C)N4CCN(C)CC4)cccc23)n1, the GI50 [1] is reported as 34.3 µM, the TGI [1] is reported as greater than 100 µM and the GI50 [2] is reported as 20.1 µM. For the same molecule, the TGI [2] was 73.1 µM, the GI50 [3] was 16.2 µM and the TGI [3] was 40.9 µM. For the same molecule, the GI50 [4] was 40.6 µM, the TGI [4] was greater than 100 µM and the GI50 [10] was 29.2 µM. The TGI [10] was greater than 100 µM, the GI50 [5] was 44.2 µM and the TGI [5] was greater than 100 µM. The GI50 [6] was 29.2 µM, the TGI [6] was greater than 100 µM and the GI50 [7] was 27 µM. It also gave a TGI [7] greater than 100 µM, a GI50 [8] of 62.8 µM and a TGI [8] greater than 100 µM.
In the case of CC1(c2ccc(F)cc2)C2C(=O)NC(=O)C1C(=O)NC2=O (stereo not given), the TGI [2] is reported as greater than 100 µM, the TGI [3] is reported as greater than 100 µM and the TGI [4] is reported as greater than 100 µM. For the same molecule, the TGI [10] was greater than 100 µM, the TGI [5] was greater than 100 µM and the TGI [6] was greater than 100 µM. The TGI [9] was greater than 100 µM.
